# Legend:
# t-PA-induced clot lysis = assay: In vitro t-PA-induced clot lysis of rat blood clots; format: biochemical; conditions: for effect on t-PA-induced clot lysis: t-PA 0.008 mg/mL
# Method: In vitro experiments (FIG. 2) were performed using Male adult Sprague-Dawley rats (500±50 g). The rats were killed by decapitation. A volume of 500 μL of rat blood was transferred in different pre-weighed sterile Eppenforf™ tubes of 1.5 mL volume and incubated at 37° C. for 15 hours.
# After clot formation, serum was completely removed, aspired out without disturbing the clot formed, and each tube was again weighed to determine the clot weight (clot weight=weight of tube containing clot−weight of tube alone). Each tube containing clot was properly labeled and filled with 1 mL of a saline solution containing 0.008 mg/mL of t-PA, saturated beforehand with medical air (control), nitrous oxide, xenon, argon or a mixture of nitrous oxide and argon. Some tubes were filled with saline alone saturated with medical air to serve as a negative control. All tubes were then incubated at 37° C. for 1 h 30 min. After incubation, the fluid obtained was removed and tubes were again weighed to observe the difference in weight after clot disruption. Difference obtained in weight taken before and after clot lysis was expressed as a percentage of clot lysis.
# (§1) The effects of oxygen on the catalytic activity and thrombolytic properties of t-PA were also evaluated in vitro and in vivo according to the methods described above.
# human recombinant t-PA = human recombinant t-PA (Homo sapiens, UniProt P00750); assay: Catalytic activity of t-PA (initial rate method, spectrophotometer); format: biochemical
# human recombinant t-PA, sequence (P00750 36-562): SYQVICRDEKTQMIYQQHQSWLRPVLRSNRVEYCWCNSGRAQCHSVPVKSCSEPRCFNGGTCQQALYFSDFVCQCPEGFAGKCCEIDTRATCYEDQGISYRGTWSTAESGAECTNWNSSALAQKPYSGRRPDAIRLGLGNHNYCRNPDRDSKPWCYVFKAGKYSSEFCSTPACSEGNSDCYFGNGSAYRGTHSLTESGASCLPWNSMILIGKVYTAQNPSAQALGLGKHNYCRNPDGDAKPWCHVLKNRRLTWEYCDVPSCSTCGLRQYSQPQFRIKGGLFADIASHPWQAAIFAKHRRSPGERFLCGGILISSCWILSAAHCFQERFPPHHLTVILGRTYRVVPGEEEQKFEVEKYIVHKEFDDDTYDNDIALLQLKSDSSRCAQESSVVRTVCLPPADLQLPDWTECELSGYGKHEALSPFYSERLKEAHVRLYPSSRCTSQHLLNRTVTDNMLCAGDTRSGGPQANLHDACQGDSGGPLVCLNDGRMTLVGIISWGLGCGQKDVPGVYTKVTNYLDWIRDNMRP
# Method: All experiments were performed as follows: Fifty (50) μL of human recombinant t-PA was incubated with 50 μL of its substrate: methylsulfonyl-D-phenyl-glycil-arginine-7-amino-4-methylcoumarin acetate. For plasmin, twenty five (25) μL of human recombinant plasmin was incubated with 25 μL of its substrate: H-D-norleucyl-hexahydrotyrosol-lysine-para-nitroanilide diacetate. The kinetics of the catalytic activity of t-PA or plasmin was immediately measured using a spectrophotometer, and then estimated using the initial rate method. Solutions of t-PA or plasmin and their substrates were saturated with air (control), or with nitrous oxide, argon, xenon, or helium at concentrations of 15 vol % to 75 vol %, the remainder being oxygen at 25 vol %, completed with nitrogen when necessary.
# For all gas mixtures in FIG. 1, the remainder is 25 vol % oxygen completed with nitrogen if necessary.
# as §1
# [1] = system: middle cerebral artery occlusion using an autologous blood clot; assay: In vivo thrombolysis/reperfusion after embolic middle cerebral artery occlusion using an autologous blood clot; design: species or system rat
# Method: In vivo experiments (FIG. 3) were performed in Male adult Sprague-Dawley rats (290±40 g). The animals had free access to food and water in an animal room at constant temperature and humidity. Rats monitored for their physiological functions were anesthesized, and subjected to cerebral ischemia by occlusion of the middle cerebral artery using an autologus blood clot obtained from whole blood withdrawn from the rat 24 h prior surgery, allowed to clot at 37° C. for 2 h, and then and stored at 4° C. for 22 h.
# Embolic occlusion of the middle cerebral artery was induced using an autologous blood clot. Briefly, a blood clot of 4 cm long was injected with a volume of […] of saline into the middle cerebral artery. Forty-five minutes after occlusion of the middle cerebral artery, the rats were given t-PA intravenously (0.9 mg/kg; 10% bolus, 90% perfusion during 45 minutes) in order to induce thrombolysis. Five minutes before the bolus injection and all along the perfusion period with t-PA, the rats were treated with medical air (controls) or xenon. Then, the catheter was removed, and all the incisions closed. After the experiment, the rats were allowed moving freely in their home cage with free access to food and water.
# as §1
# [2] = system: NMDA-induced neuronal death; assay: NMDA-induced neuronal death after intracerebral injection, with or without t-PA; format: in vivo, rat
# Method: Experiments were conducted in Male adult Sprague-Dawley rats. The rats were given, under short halothane-oxygen anesthesia of 10 min duration, an intracerebral injection of 50 nmol NMDA, alone or in combination with 3 mg t-PA, in […] saline solution.
# One hour later, the rats were treated for a 3 h period in an environmental chamber saturated with nitrous oxide at 50 vol % with the remainder being oxygen at 25 vol % completed with nitrogen.
# Forty-eight (48) hours after NMDA injection, rats were killed by decapitation under halothane-oxygen anesthesia. The brain was rapidly removed, frozen in isopentane, placed at −80° C. Coronal brain sections (20 μm) were then cryostat-cut, mounted on gelatinized slides, and stained with thionin. Brain sections colored with thionin were then digitized on a PC computer, and analyzed with an image analyzer (ImageJ® software, Scion corp., USA) by two blinded scientists. Values were averaged; value differences were no more than 10% (mean: 0.5±1%). The lesion areas were delineated by the pallor of histological staining in the necrotic tissue compared with the surrounding healthy tissue. The infarction volume was calculated by integration over the whole brain of the infarcted surfaces, using the sterotaxic atlas for the rat brain of Paxinos and Watson (Academic Press, 1998).
# [3] = solutions saturated with gas at 15 vol % to 75 vol %, remainder 25 vol % oxygen completed with nitrogen, vs air control
# [4] = gas at 50 vol %, 37° C., 1 h 30 min
compound,measurement,setting,value
"O=O [Oxygen, oxygen]",effect on in vitro thrombolytic action of t-PA,t-PA-induced clot lysis; oxygen at 100 vol %,facilitates
same,effect on the catalytic activity of t-PA,human recombinant t-PA; oxygen at 100 vol %,increases
same,effect on in vivo thrombolytic action of t-PA,[1]; oxygen at 100 vol %,facilitates
[Ar] [argon],effect on t-PA-induced clot lysis,"t-PA-induced clot lysis; gas at 30 vol %, 37° C., 1 h 30 min",reduce
same,effect on the catalytic activity of t-PA,human recombinant t-PA; [3],reduced
[He] [helium],effect on t-PA-induced clot lysis,"t-PA-induced clot lysis; gas at 75 vol %, 37° C., 1 h 30 min",reduce
same,effect on the catalytic activity of t-PA,human recombinant t-PA; [3],reduced
[N-]=[N+]=O [nitrous oxide],reduction of neuronal death induced by co-administration of t-PA and NMDA,"[2]; nitrous oxide 50 vol % for 3 h, 1 h after 50 nmol NMDA + t-PA intracerebral, infarction volume at 48 h",45%
same,reduction of neuronal death produced by NMDA,"[2]; nitrous oxide 50 vol % for 3 h, 1 h after 50 nmol NMDA intracerebral, infarction volume at 48 h",22%
same,reduction of the proteolytic action of t-PA responsible for the enhancement of neuronal death,"[2]; nitrous oxide 50 vol %, difference 45%−22%",approximately 23%
same,effect on t-PA-induced clot lysis,t-PA-induced clot lysis; [4],reduce
same,effect on the catalytic activity of t-PA,human recombinant t-PA; [3],reduced
[Xe] [xenon],effect on t-PA-induced clot lysis,t-PA-induced clot lysis; [4],reduce
same,effect on the catalytic activity of t-PA,human recombinant t-PA; [3],reduced
same,reperfusion rate versus control rats treated with t-PA and medical air,[1]; xenon at 75 vol % from 5 min before bolus and during t-PA perfusion (0.9 mg/kg i.v.),lower reperfusion rate
"t-PA: human recombinant tissue-type plasminogen activator, a thrombolytic serine protease",effect on NMDA-induced neuronal death,[2]; t-PA co-administered with 50 nmol NMDA intracerebrally,increases
same,percentage of clot lysis,"t-PA-induced clot lysis; t-PA 0.008 mg/mL in saline saturated with medical air (control), 37° C., 1 h 30 min",around 23%
same,reperfusion,"[1]; t-PA 0.9 mg/kg intravenously 45 min after occlusion, vs rats not treated with t-PA",exhibit reperfusion
